From ChEMBL document CHEMBL1147544, “N-alkyl-4-[(8-azabicyclo[3.2.1]-oct-3-ylidene)phenylmethyl]benzamides, micro and delta opioid agonists: a micro address” (Bioorg Med Chem Lett, 2004) come the findings set out here.

One may read the Ki as the equilibrium dissociation constant of an inhibitor or competing ligand from its target. Read a high Ki as a looser hold on the target. Broadly, the ED50 is the dose at which the effect has come halfway, by size or by number of responders. High values mean weaker potency, low ones greater potency.

The target in experiment [1] is Delta-type opioid receptor (Homo sapiens, UniProt P41143). Put plainly: In vitro binding affinity towards opioid receptor delta 1.
In experiment [2] the target is T1, Mu-type opioid receptor (Homo sapiens, UniProt P35372). Briefly: In vitro binding affinity towards opioid receptor mu 1. More on the design: species or system unidentified.
For experiment [3], the target named is T1, Mu-type opioid receptor. Briefly: Percentage stimulation of [35S]GTP-gamma-S, binding at the opioid receptor mu 1 at 10 uM. The experiment is classed as functional. Background: GTPγS is a poorly hydrolysed GTP analogue; its binding reports G protein activation.
Another experiment has as its system Mus musculus. Briefly: Antinociceptive activity by mouse hotplate test (55 degree C, po ). The experiment is classed as functional.

Structures are written as SMILES.

T1 sequence (P35372 whole entry): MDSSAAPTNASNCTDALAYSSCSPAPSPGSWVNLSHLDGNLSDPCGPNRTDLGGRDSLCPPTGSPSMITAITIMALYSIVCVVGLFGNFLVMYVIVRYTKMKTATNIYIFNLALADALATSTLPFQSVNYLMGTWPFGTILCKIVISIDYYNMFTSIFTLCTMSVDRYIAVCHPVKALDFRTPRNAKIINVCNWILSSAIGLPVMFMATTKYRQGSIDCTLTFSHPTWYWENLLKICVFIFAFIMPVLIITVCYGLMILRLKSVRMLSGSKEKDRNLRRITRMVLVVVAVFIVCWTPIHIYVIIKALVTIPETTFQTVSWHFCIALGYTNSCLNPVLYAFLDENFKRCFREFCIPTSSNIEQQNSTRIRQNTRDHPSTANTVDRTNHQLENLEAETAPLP
Chain of Delta-type opioid receptor (P41143 whole entry): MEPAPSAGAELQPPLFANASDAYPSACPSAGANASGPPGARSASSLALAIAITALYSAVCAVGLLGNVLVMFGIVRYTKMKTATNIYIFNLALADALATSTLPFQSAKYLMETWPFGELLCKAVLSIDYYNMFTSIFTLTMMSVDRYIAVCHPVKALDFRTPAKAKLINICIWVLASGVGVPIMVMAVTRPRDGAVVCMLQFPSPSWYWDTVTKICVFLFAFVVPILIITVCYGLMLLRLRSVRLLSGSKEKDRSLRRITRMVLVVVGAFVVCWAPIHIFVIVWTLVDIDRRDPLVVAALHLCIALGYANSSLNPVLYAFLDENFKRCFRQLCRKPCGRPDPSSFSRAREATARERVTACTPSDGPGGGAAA

Consider `CCNC(=O)c1ccc(C(=C2CC3CCC(C2)N3CCOc2ccccc2)c2ccccc2)cc1`, for which the values for the Ki (in experiment [1]; at Mu-type opioid receptor [2]) were 0.0634 µM and 0.093 µM, respectively.

As for `CCNC(=O)c1ccc(C(=C2CC3CCC(C2)N3CCc2ccccc2)c2ccc(O)cc2)cc1`, the Ki in experiment [1] was 0.0078 µM; on Mu-type opioid receptor [2], 0.0217 µM.

For `O=C(Nc1ccccc1)c1ccc(C(=C2CC3CCC(C2)N3CCc2ccccc2)c2ccccc2)cc1`, the figures for the inhibition constant Ki (in experiment [1]; at Mu-type opioid receptor [2]) were 1.52 µM and 4.24 µM, respectively.

Take `O=C(NC1CCCCC1)c1ccc(C(=C2CC3CCC(C2)N3CCc2ccccc2)c2ccccc2)cc1`: the Ki turned out to be 0.924 µM in experiment [1] and 0.717 µM on Mu-type opioid receptor [2].

As for `CCCCNC(=O)c1ccc(C(=C2CC3CCC(C2)N3CCc2ccccc2)c2ccccc2)cc1`, the Ki amounted to 0.0493 µM in experiment [1] and 0.0217 µM on Mu-type opioid receptor [2].

In the case of `CCNC(=O)c1ccc(/C(=C2\C[C@H]3CC[C@@H](C2)N3C)c2ccccc2)cc1`, the Ki in experiment [1] amounted to 0.292 µM; at Mu-type opioid receptor [2], 0.304 µM.

For `CCNC(=O)c1ccc(C(=C2CC3CCC(C2)N3c2cccn2C)c2ccccc2)cc1`, the Ki amounted to 0.0208 µM in experiment [1] and 0.059 µM on Mu-type opioid receptor [2].

`CCNC(=O)c1ccc(C(=C2CC3CCC(C2)N3Cc2cccs2)c2ccc(OC)cc2)cc1`: the inhibitory constant (Ki) in experiment [1] stood at 0.00132 µM; at Mu-type opioid receptor [2] it was 0.0135 µM.

Turning to `CCNC(=O)c1ccc(C(=C2CC3CCC(C2)N3Cc2[nH]cnc2C)c2ccccc2)cc1`, the Ki in experiment [1] is 0.0159 µM; at Mu-type opioid receptor [2], 0.061 µM.

Regarding `C=CCN1C2CCC1CC(=C(c1ccc(C(=O)NCC)cc1)c1cccc(OC)c1)C2`, the Ki in experiment [1] worked out at 0.00145 µM; on Mu-type opioid receptor [2] it was 0.0138 µM.

Consider `CCNC(=O)c1ccc(C(=C2CC3CCC(C2)N3CCc2c[nH]c3ccccc23)c2ccccc2)cc1`, for which the Ki in experiment [1] is 0.0237 µM; at Mu-type opioid receptor [2], 0.084 µM.

`CCNC(=O)c1ccc(C(=C2CC3CCC(C2)N3Cc2cccs2)c2ccc(O)cc2)cc1`: the values for the Ki (in experiment [1]; at Mu-type opioid receptor [2]) were 0.00025 µM and 0.00677 µM, respectively.

For `CCNC(=O)c1ccc(C(=C2CC3CCC(C2)N3CCO)c2ccccc2)cc1`, the values for the Ki (in experiment [1]; on Mu-type opioid receptor [2]) were 0.0262 µM and 0.076 µM, respectively.

Take `CCNC(=O)c1ccc(/C(=C2/C[C@H]3CC[C@@H](C2)N3)c2ccccc2)cc1`: the Ki in experiment [1] came out at 0.00548 µM; at Mu-type opioid receptor [2], 0.0747 µM.

For `CCNC(=O)c1ccc(C(=C2CC3CCC(C2)N3Cc2ccccc2Cl)c2ccc(O)cc2)cc1`, the Ki was 0.00093 µM in experiment [1] and 0.00872 µM at Mu-type opioid receptor [2].

Take `O=C(Nc1nccs1)c1ccc(C(=C2CC3CCC(C2)N3CCc2ccccc2)c2ccccc2)cc1`: the values for the Ki (in experiment [1]; at Mu-type opioid receptor [2]) were 0.0495 µM and 0.053 µM, respectively.

As for `C=CCN1[C@@H]2CC[C@H]1C/C(=C(/c1ccccc1)c1ccc(C(=O)NCC)cc1)C2`, the results for the Ki (in experiment [1]; on Mu-type opioid receptor [2]) were 0.00224 µM and 0.0105 µM, respectively.

`CCNC(=O)c1ccc(C(=C2CC3CCC(C2)N3)c2cccc(OC)c2)cc1`: the Ki in experiment [1] was determined as 0.0132 µM; on Mu-type opioid receptor [2] it was 0.096 µM.

Take `CCNC(=O)c1ccc(C(=C2CC3CCC(C2)N3CCc2ccccc2)c2ccc(OC)cc2)cc1`: the Ki in experiment [1] was 0.0113 µM; on Mu-type opioid receptor [2], 0.0061 µM.

In the case of `CCNC(=O)c1ccc(/C(=C2\C[C@H]3CC[C@@H](C2)N3CCc2ccccc2)c2ccccc2)cc1`, the Ki in experiment [1] came to 0.0467 µM; at Mu-type opioid receptor [2] it was 0.00026 µM. At Mu-type opioid receptor [3], the Stimulation was 490%. Besides, in the experiment on Mus musculus, it took a dose of 25 µmol/kg to reach the 50% effect level (ED50).

Take `CCNC(=O)c1ccc(C(=C2CC3CCC(C2)N3Cc2ccccc2Cl)c2cccc(OC)c2)cc1`: the inhibition constant Ki in experiment [1] turned out to be 0.00666 µM; on Mu-type opioid receptor [2] it was 0.0577 µM.

As to `CCNC(=O)c1ccc(C(=C2CC3CCC(C2)N3Cc2c[nH]cn2)c2ccccc2)cc1`, the Ki is 0.00388 µM in experiment [1] and 0.101 µM at Mu-type opioid receptor [2].

With `CCNC(=O)c1ccc(/C(=C2/C[C@H]3CC[C@@H](C2)N3C)c2ccccc2)cc1`, the Ki in experiment [1] stood at 0.00639 µM; at Mu-type opioid receptor [2], 0.0425 µM.

`CCNC(=O)c1ccc(C(=C2CC3CCC(C2)N3Cc2ccccn2)c2ccccc2)cc1`: the Ki is 0.00086 µM in experiment [1] and 0.017 µM at Mu-type opioid receptor [2].

`CCN(CC)C(=O)c1ccc(/C(=C2\C[C@H]3CC[C@@H](C2)N3CCc2ccccc2)c2ccccc2)cc1`: in the experiment with Mus musculus, the median effective dose (ED50) was found to be 25 µmol/kg.

For `CCNC(=O)c1ccc(C(=C2CC3CCC(C2)N3CCc2ccccc2)c2cccc(OC)c2)cc1`, the Ki in experiment [1] stood at 0.0198 µM; at Mu-type opioid receptor [2] it was 0.000654 µM.

`CCNC(=O)c1ccc(C(=C2CC3CCC(C2)N3CCc2ccccc2)c2cccc(O)c2)cc1`: the Ki at Mu-type opioid receptor [2] worked out at 0.000222 µM.

For the compound `O=C(NCCF)c1ccc(C(=C2CC3CCC(C2)N3CCc2ccccc2)c2ccccc2)cc1`, the Ki in experiment [1] was 0.032 µM; at Mu-type opioid receptor [2], 0.00299 µM.

For the compound `CNC(=O)c1ccc(C(=C2CC3CCC(C2)N3CCc2ccccc2)c2ccccc2)cc1`, the inhibitory constant (Ki) in experiment [1] came to 0.013 µM; on Mu-type opioid receptor [2], 0.00014 µM.

With `CCNC(=O)c1ccc(C(=C2CC3CCC(C2)N3CC=C(C)C)c2cccc(OC)c2)cc1`, the Ki in experiment [1] came to 0.00072 µM; at Mu-type opioid receptor [2], 0.00204 µM.

In the case of `CCNC(=O)c1ccc(C(=C2CC3CCC(C2)N3)c2ccc(O)cc2)cc1`, the Ki in experiment [1] came to 0.0045 µM; on Mu-type opioid receptor [2], 0.265 µM.

For `COCCNC(=O)c1ccc(C(=C2CC3CCC(C2)N3CCc2ccccc2)c2ccccc2)cc1`, the Ki is 0.103 µM in experiment [1] and 0.163 µM on Mu-type opioid receptor [2].

As for `CCNC(=O)c1ccc(C(=C2CC3CCC(C2)N3CCCc2ccccc2)c2ccccc2)cc1`, the Ki turned out to be 0.0123 µM in experiment [1] and 0.0048 µM on Mu-type opioid receptor [2].

For `O=C(NC1CC1)c1ccc(C(=C2CC3CCC(C2)N3CCc2ccccc2)c2ccccc2)cc1`, the Ki in experiment [1] came out at 0.02 µM; on Mu-type opioid receptor [2], 0.00101 µM.

With `C=CCN1[C@@H]2CC[C@H]1C/C(=C(\c1ccccc1)c1ccc(C(=O)NCC)cc1)C2`, the Ki in experiment [1] is 0.00772 µM; on Mu-type opioid receptor [2], 0.0191 µM.

On to `CCNC(=O)c1ccc(C(=C2CC3CCC(C2)N3Cc2cccs2)c2cccc(OC)c2)cc1`, for which the Ki in experiment [1] came to 0.00051 µM; at Mu-type opioid receptor [2], 0.00379 µM.

For the compound `C=CCN1C2CCC1CC(=C(c1ccc(C(=O)NCC)cc1)c1cccc(O)c1)C2`, the inhibition constant (Ki) is 0.000384 µM in experiment [1] and 0.00958 µM at Mu-type opioid receptor [2].

`CC(C)(C)NC(=O)c1ccc(C(=C2CC3CCC(C2)N3CCc2ccccc2)c2ccccc2)cc1`: the Ki is 0.352 µM in experiment [1] and 0.608 µM on Mu-type opioid receptor [2].

Turning to `CCCNC(=O)c1ccc(C(=C2CC3CCC(C2)N3CCc2ccccc2)c2ccccc2)cc1`, the values for the Ki (in experiment [1]; on Mu-type opioid receptor [2]) were 0.022 µM and 0.0016 µM, respectively.

As to `CCNC(=O)c1ccc(C(=C2CC3CCC(C2)N3Cc2ccccc2Cl)c2cccc(O)c2)cc1`, the Ki in experiment [1] came out at 0.00209 µM; on Mu-type opioid receptor [2], 0.015 µM.

`CCNC(=O)c1ccc(C(=C2CC3CCC(C2)N3Cc2ccccc2Cl)c2ccc(OC)cc2)cc1`: the Ki in experiment [1] is 0.00567 µM; at Mu-type opioid receptor [2], 0.122 µM.

Consider `NC(=O)c1ccc(C(=C2CC3CCC(C2)N3CCc2ccccc2)c2ccccc2)cc1`, for which the Ki came to 0.0359 µM in experiment [1] and 0.0396 µM at Mu-type opioid receptor [2].

Regarding `CCNC(=O)c1ccc(C(=C2CC3CCC(C2)N3CC=C(C)C)c2cccc(O)c2)cc1`, the Ki in experiment [1] was 0.00202 µM; on Mu-type opioid receptor [2], 0.00252 µM.

As for `CCNC(=O)c1ccc(/C(=C2/C[C@H]3CC[C@@H](C2)N3CCc2ccccc2)c2ccccc2)cc1`, the Ki in experiment [1] amounted to 0.00469 µM; at Mu-type opioid receptor [2] it was 0.00716 µM.

On to `CCNC(=O)c1ccc(C(=C2CC3CCC(C2)N3Cc2cccs2)c2cccc(O)c2)cc1`, for which the Ki in experiment [1] turned out to be 0.000152 µM; on Mu-type opioid receptor [2], 0.000664 µM.
